# From patent publication US11059801B2, “Methods to induce targeted protein degradation through bifunctional molecules” (Dana-Farber Cancer Institute, Inc., priority 2014, dated 2021)
# Read-outs that look alike come from different tables or passages of the source.
# Key:
# CRBN-DDB1/BRD4 = CRBN-DDB1/BRD4 (Homo sapiens (Human), UniProt O60885+Q96SW2); experiment: CRBN-DDB1/BRD4 Dimerization Assay; format: binding;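 note: AlphaScreen proximity signal between GST-tagged BRD4 and CRBN-DDB1 with glutathione donor and nickel chelate acceptor beads, read after 1 hr compound incubation at room temperature, values from Gaussian curve fit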
# [1] = biological target: BRD4 adjoined to nanoluciferase (Nluc) (Homo sapiens (Human), UniProt O60885+Q96SW2); experiment: BRD4 Dual Luciferase Assay; format: cell-based
# Experimental: Transduced cells were selected with puromycin and expanded. […] Cells were incubated with compound for 4 hours at 37° C., 5% CO2 and then allowed to cool to room temperature. To each plate was added 25 μL of Fluc buffer (200 mM Tris, 15 mM MgSO4, 100 uM EDTA, 1 mM DTT, 1 mM ATP, 200 uM Coenzyme A, 400 uM D-Luciferin, 0.1% Trition X-100).
# [2] = biological target: IKZF1 adjoined to nanoluciferase (Nluc) (Homo sapiens (Human), UniProt Q13422); experiment: IKZF1 Dual Luciferase Assay; format: cell-based; conditions: 4 hours; read-out: Nluc/Fluc IKZF1 IC50
# Experimental: Transduced cells were selected with puromycin at 2 μg/mL and expanded. […] Cells were incubated with compound for 4 hours at 37° C., 5% CO2 and then allowed to cool to room temperature. To each plate was added 25 μL of Fluc buffer (200 mM Tris, 15 mM MgSO4, 100 uM EDTA, 1 mM DTT, 1 mM ATP, 200 uM Coenzyme A, 400 uM D-Luciferin, 0.1% Trition X-100).
# [3] = biological target: fusion of mutant FKBP12 to nanoluciferase (Homo sapiens (Human), UniProt P62942+Q96SW2, F36V); experiment: FKBP Dual Luciferase Assay (mutant FKBP12, 36V); format: cell-based; conditions: 4 hours; for DC50: read-out: DC50 (nM) FKBP 36V;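 for all read-outs here: cells exposed to rising degrader concentrations, FKBP12 fusion level read as NLuc/FLuc signal ratio, lower ratio means more degradation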
# Experimental: (§1) The cells were treated with increasing concentrations of various dFKBPs for 4 hours. The amount of NLuc and FLuc was measured, and the abundance of the FKBP12-HA-NLuc was quantified by calculating the signal ratio of NLuc/FLuc.
# GST-FKBP12 (WT) = GST-FKBP12 (WT) (Homo sapiens (Human), UniProt P62942); experiment: FKBP12 Ligand-Displacement AlphaScreen Assay (WT); format: binding; conditions: read-out: IC50 (nM) FKBP
# GST-FKBP12 (WT), sequence (P62942 whole entry): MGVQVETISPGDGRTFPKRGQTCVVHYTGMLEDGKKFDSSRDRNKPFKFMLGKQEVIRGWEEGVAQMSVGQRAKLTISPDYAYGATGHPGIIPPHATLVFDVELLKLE
# Experimental: (§2) Following a 30 min-incubation, 20 uL detection solution containing Streptavidin Donor Beads and Glutathione Acceptor Beads diluted to 20 ng/uL in assay buffer was added to each well. […] Percent activity values were calculated by setting the average background (no protein wells) to 0% the average DMSO wells to 100% activity. Standard deviations were determined from at least four replicate measurements for compound concentration.
# GST-FKBP12 (36V) = GST-FKBP12 (36V) (Homo sapiens (Human), UniProt P62942, F36V); experiment: FKBP12 Ligand-Displacement AlphaScreen Assay (36V); format: binding; conditions: read-out: IC50 (nM) FKBP 36V
# GST-FKBP12 (36V), sequence (P62942 whole entry F37V, the tested form may be a part): as the sequence (P62942 whole entry) above, with F37V counted along it
# Experimental: as §2
# [4] = biological target: fusion of FKBP12 to nanoluciferase (Homo sapiens (Human), UniProt P62942+Q96SW2); experiment: FKBP Dual Luciferase Assay (FKBP12); format: cell-based; conditions: 4 hours
# Experimental: as §1
# [5] = Gaussian fit of dimerization signal
# [6] = Gaussian fit parameter of dimerization signal
smiles,measurement,setting,value
Cc1sc2c(c1C)C(c1ccc(Cl)cc1)=N[C@@H](CC(=O)NCCCCOc1cccc3c1C(=O)N(C1CCC(=O)NC1=O)C3=O)c1nnc(C)n1-2 (some centres unmarked) [dBET28],Dimer Amplitude,CRBN-DDB1/BRD4; [5],1752
same,Dimer Mean,CRBN-DDB1/BRD4; [5],−7.037
same,Dimer SD,CRBN-DDB1/BRD4; [6],1.263
same,Conc@Emax,[1]; concentration at Emax,0.001581 µM
"O=C1CCC(N2C(=O)c3ccc(F)cc3C2=O)C(=O)N1 [Compound D-24, 2-(2,6-dioxopiperidin-3-yl)-5-fluoroisoindoline-1,3-dione]",DC50,[2],> 50000 nM
Cc1sc2c(c1C)C(c1ccc(Cl)cc1)=N[C@@H](CC(=O)NCCOCCOCCNC(=O)COc1cccc3c1C(=O)N(C1CCC(=O)NC1=O)C3=O)c1nnc(C)n1-2 (some centres unmarked) [dBET24],Dimer Amplitude,CRBN-DDB1/BRD4; [5],31348
same,Dimer Mean,CRBN-DDB1/BRD4; [5],−7.489
same,Dimer SD,CRBN-DDB1/BRD4; [6],0.6531
same,Conc@Emax,[1]; concentration at Emax,5 µM
CC[C@H](C(=O)N1CCCC[C@H]1C(=O)O[C@H](CCc1ccc(OC)c(OC)c1)c1cccc(OCC(=O)NCCCCNC(=O)COc2cccc3c2C(=O)N(C2CCC(=O)NC2=O)C3=O)c1)c1cc(OC)c(OC)c(OC)c1 (some centres unmarked) [c1FKBP*-6],DC50,[3]; FKBP 36V,1.3 nM
same,IC50,GST-FKBP12 (WT),> 50000 nM
same,IC50,GST-FKBP12 (36V),311 nM
CCC(C)(C)C(=O)C(=O)N1CCC[C@H]1C(=O)O[C@H](CCc1ccc(OC)c(OC)c1)c1cccc(OCC(=O)NCCCCNC(=O)COc2cccc3c2C(=O)N(C2CCC(=O)NC2=O)C3=O)c1 (some centres unmarked) [c1FKBP-3],DC50,[4],19700 nM
same,"Max Degradation (dual luciferase, %) FKBP",[4],22%
same,"Max Degradation (dual luciferase, %) FKBP 36V",[3],12%
same,IC50,GST-FKBP12 (WT),1830 nM
same,IC50,GST-FKBP12 (36V),1200 nM
CCC(C)(C)C(=O)C(=O)N1CCCC[C@H]1C(=O)O[C@H](CCc1ccc(OC)c(OC)c1)c1cccc(NC(=O)CCC(=O)NCCCCNC(=O)COc2cccc3c2C(=O)N(C2CCC(=O)NC2=O)C3=O)c1 (some centres unmarked) [dFKBP-1],DC50,[4],11 nM
same,DC50,[3]; FKBP 36V,153 nM
same,IC50,GST-FKBP12 (36V),237 nM
Cc1sc2c(c1C)C(c1ccc(Cl)cc1)=N[C@@H](CC(=O)NCCOCCOc1cccc3c1C(=O)N(C1CCC(=O)NC1=O)C3=O)c1nnc(C)n1-2 (some centres unmarked) [dBET27],Dimer Amplitude,CRBN-DDB1/BRD4; [5],11278
same,Dimer Mean,CRBN-DDB1/BRD4; [5],−7.202
same,Dimer SD,CRBN-DDB1/BRD4; [6],0.7693
same,Conc@Emax,[1]; concentration at Emax,0.5 µM
CC[C@H](C(=O)N1CCCC[C@H]1C(=O)O[C@H](CCc1ccc(OC)c(OC)c1)c1cccc(OCC(=O)NCCCCCCNC(=O)COc2cccc3c2C(=O)N(C2CCC(=O)NC2=O)C3=O)c1)c1cc(OC)c(OC)c(OC)c1 (some centres unmarked) [c1FKBP*-8],Dmax,"[4]; read-out: Max Degradation (dual luciferase, %) FKBP",< 5%
same,DC50,[3]; FKBP 36V,0.8 nM
same,Dmax,"[3]; FKBP 36V, read-out: Max Degradation (dual luciferase, %) FKBP 36V",75%
same,IC50,GST-FKBP12 (WT),> 50000 nM
same,IC50,GST-FKBP12 (36V),365 nM
"O=C1CCC(N2C(=O)c3ccc(C(=O)O)cc3C2=O)C(=O)N1 [Compound D-13, 2-(2,6-dioxopiperidin-3-yl)-1,3-dioxoisoindoline-5-carboxylic acid]",DC50,[2],> 50000 nM
"CC(=O)Nc1ccc2c(c1)C(=O)N(C1CCC(=O)NC1=O)C2=O [Compound D-5, N-(2-(2,6-dioxopiperidin-3-yl)-1,3-dioxoisoindolin-5-yl)acetamide]",DC50,[2],> 50000 nM
Cc1c(C(=O)NCCCCNC(=O)COc2cccc3c2C(=O)N(C2CCC(=O)NC2=O)C3=O)sc2c1C(c1ccc(Cl)cc1)=N[C@@H](CC(=O)NCCCN1CCN(C)CC1)c1nnc(C)n1-2 (some centres unmarked) [dBET30],Dimer Amplitude,CRBN-DDB1/BRD4; [5],30326
same,Dimer Mean,CRBN-DDB1/BRD4; [5],−7.422
same,Dimer SD,CRBN-DDB1/BRD4; [6],0.8533
same,DC50,"[1]; Dual Luciferase, 4 hours",2100 nM
same,Conc@Emax,[1]; concentration at Emax,50 µM
same,pDC50 (dual luc),"[1]; dual luc, 4 hours",5.679
"O=C1CCC(N2C(=O)c3cccc(O)c3C2=O)C(=O)N1 [Compound D-1, 2-(2,6-dioxopiperidin-3-yl)-4-hydroxyisoindoline-1,3-dione]",DC50,[2],> 50000 nM
"O=C1CCC(N2C(=O)c3cccc([N+](=O)[O-])c3C2=O)C(=O)N1 [Compound D-10, 2-(2,6-dioxopiperidin-3-yl)-4-nitroisoindoline-1,3-dione]",DC50,[2],> 50000 nM
"O=C1CCC(N2C(=O)c3cccc(F)c3C2=O)C(=O)N1 [Compound D-14, 2-(2,6-dioxopiperidin-3-yl)-4-fluoroisoindoline-1,3-dione]",DC50,[2],> 50000 nM
CCC(C)(C)C(=O)C(=O)N1CCCC[C@H]1C(=O)O[C@H](CCc1ccc(OC)c(OC)c1)c1cccc(OCC(=O)NCCCCNC(=O)COc2cccc3c2C(=O)N(C2CCC(=O)NC2=O)C3=O)c1 (some centres unmarked) [c1FKBP-4],"Max Degradation (dual luciferase, %) FKBP",[4],34%
same,"Max Degradation (dual luciferase, %) FKBP 36V",[3],21%
same,IC50,GST-FKBP12 (WT),408 nM
same,IC50,GST-FKBP12 (36V),369 nM
CC[C@@H]1C(=O)N(C)c2cnc(Nc3ccc(C(=O)NCCCCCCNC(=O)COc4cccc5c4C(=O)N(C4CCC(=O)NC4=O)C5=O)cc3OC)nc2N1C1CCCC1 (some centres unmarked) [dBET7],Dimer Amplitude,CRBN-DDB1/BRD4; [5],31800
same,Dimer Mean,CRBN-DDB1/BRD4; [5],−6.18
same,Dimer SD,CRBN-DDB1/BRD4; [6],0.4549
same,Conc@Emax,[1]; concentration at Emax,0.5 µM
Cc1sc2c(c1C)C(c1ccc(Cl)cc1)=N[C@@H](CC(=O)NCCCCCCOc1cccc3c1C(=O)N(C1CCC(=O)NC1=O)C3=O)c1nnc(C)n1-2 (some centres unmarked) [dBET29],Dimer Amplitude,CRBN-DDB1/BRD4; [5],1454
same,Dimer Mean,CRBN-DDB1/BRD4; [5],−7.756
same,Dimer SD,CRBN-DDB1/BRD4; [6],0.7393
same,Conc@Emax,[1]; concentration at Emax,0.05 µM
"O=C1CCC(N2C(=O)c3ccc([N+](=O)[O-])cc3C2=O)C(=O)N1 [Compound D-2, 2-(2,6-dioxopiperidin-3-yl)-5-nitroisoindoline-1,3-dione]",DC50,[2],> 50000 nM
"O=C1CCC(N2C(=O)c3cccc(NCc4ccccc4)c3C2=O)C(=O)N1 [Compound D-16, 4-(benzylamino)-2-(2,6-dioxopiperidin-3-yl)isoindoline-1,3-dione]",DC50,[2],23.9 nM
"CC(=O)Nc1cccc2c1C(=O)N(C1CCC(=O)NC1=O)C2=O [Compound D-3, N-(2-(2,6-dioxopiperidin-3-yl)-1,3-dioxoisoindolin-4-yl)acetamide]",DC50,[2],444 nM
Cc1sc2c(c1C)C(c1ccc(Cl)cc1)=N[C@@H](CC(=O)NCCCCCCNC(=O)COc1cccc3c1C(=O)N(C1CCC(=O)NC1=O)C3=O)c1nnc(C)n1-2 (some centres unmarked) [dBET5],Dimer Amplitude,CRBN-DDB1/BRD4; [5],18644
same,Dimer Mean,CRBN-DDB1/BRD4; [5],−6.277
same,Dimer SD,CRBN-DDB1/BRD4; [6],0.4127
same,Conc@Emax,[1]; concentration at Emax,1.581 µM
"CCN(CC)c1ccc2c(c1)C(=O)N(C1CCC(=O)NC1=O)C2=O [Compound D-27, 5-(diethylamino)-2-(2,6-dioxopiperidin-3-yl)isoindoline-1,3-dione]",DC50,[2],> 50000 nM
Cc1sc2c(c1C)C(c1ccc(Cl)cc1)=N[C@@H](CC(=O)NCCCCCCNC(=O)c1ccc3c(c1)C(=O)N(C1CCC(=O)NC1=O)C3=O)c1nnc(C)n1-2 (some centres unmarked) [dBET15],Dimer Amplitude,CRBN-DDB1/BRD4,13540
same,Dimer Mean,CRBN-DDB1/BRD4,−7.111
same,Dimer SD,CRBN-DDB1/BRD4,0.6279
same,Conc@Emax,[1],5 µM
"O=C1CCC(N2C(=O)c3cccc(CNC(=O)C4CC4)c3C2=O)C(=O)N1 [Compound D-22, N-((2-(2,6-dioxopiperidin-3-yl)-1,3-dioxoisoindolin-4-yl)methyl)cyclopropanecarboxamide]",DC50,[2],534 nM
Cc1c(CC#N)sc2c1C(c1ccc(Cl)cc1)=N[C@@H](CC(=O)NCCCCNC(=O)COc1cccc3c1C(=O)N(C1CCC(=O)NC1=O)C3=O)c1nnc(C)n1-2 (some centres unmarked) [dBET19],Dimer Amplitude,CRBN-DDB1/BRD4; [5],1722
same,Dimer Mean,CRBN-DDB1/BRD4; [5],−7.069
same,Dimer SD,CRBN-DDB1/BRD4; [6],1.225
same,Conc@Emax,[1]; concentration at Emax,15.81 µM
"O=C1CCC(N2C(=O)c3ccc(NCc4ccccc4)cc3C2=O)C(=O)N1 [Compound D-25, 5-(benzylamino)-2-(2,6-dioxopiperidin-3-yl)isoindoline-1,3-dione]",DC50,[2],> 50000 nM
"CC(=O)NCc1cccc2c1C(=O)N(C1CCC(=O)NC1=O)C2=O [Compound D-23, N-((2-(2,6-dioxopiperidin-3-yl)-1,3-dioxoisoindolin-4-yl)methyl)acetamide]",DC50,[2],1020 nM
"Cc1nc2ccccc2c(=O)n1C1CC(=O)NC1=O [Compound D-11, 3-(2-methyl-4-oxoquinazolin-3(4H)-yl)pyrrolidine-2,5-dione]",DC50,[2],> 50000 nM
Cc1c(C(=O)NCCCCCCCCNC(=O)COc2cccc3c2C(=O)N(C2CCC(=O)NC2=O)C3=O)sc2c1C(c1ccc(Cl)cc1)=N[C@@H](CC(=O)NCCCN1CCN(C)CC1)c1nnc(C)n1-2 (some centres unmarked) [dBET31],Dimer Amplitude,CRBN-DDB1/BRD4; [5],32323
same,Dimer Mean,CRBN-DDB1/BRD4; [5],−7.374
same,Dimer SD,CRBN-DDB1/BRD4; [6],0.6046
same,Conc@Emax,[1]; concentration at Emax,15.81 µM
Cc1sc2c(c1C)C(c1ccc(Cl)cc1)=N[C@@H](CC(=O)NCCNC(=O)COc1cccc3c1C(=O)N(C1CCC(=O)NC1=O)C3=O)c1nnc(C)n1-2 (some centres unmarked) [dBET3],Dimer Amplitude,CRBN-DDB1/BRD4; [5],16389
same,Dimer Mean,CRBN-DDB1/BRD4; [5],−7.497
same,Dimer SD,CRBN-DDB1/BRD4; [6],0.6763
same,Conc@Emax,[1]; concentration at Emax,0.5 µM
CC[C@H](C(=O)N1CCCC[C@H]1C(=O)O[C@H](CCc1ccc(OC)c(OC)c1)c1cccc(OCC(=O)NCCCOCCOCCOCCCNC(=O)COc2cccc3c2C(=O)N(C2CCC(=O)NC2=O)C3=O)c1)c1cc(OC)c(OC)c(OC)c1 (some centres unmarked) [c1FKBP*-7],DC50,[3]; FKBP 36V,0.5 nM
same,IC50,GST-FKBP12 (WT),> 50000 nM
same,IC50,GST-FKBP12 (36V),373 nM
"O=C1CCC(N2C(=O)c3ccc(C(=O)NCc4ccccc4)cc3C2=O)C(=O)N1 [Compound D-15, N-benzyl-2-(2,6-dioxopiperidin-3-yl)-1,3-dioxoisoindoline-5-carboxamide]",DC50,[2],> 50000 nM
"Cc1cccc2c1C(=O)N(C1CCC(=O)NC1=O)C2=O [Compound D-19, 2-(2,6-dioxopiperidin-3-yl)-4-methylisoindoline-1,3-dione]",DC50,[2],111 nM
"Cc1nc2ccccc2c(=O)n1C1CCC(=O)NC1=O [Compound D-9, 3-(2-methyl-4-oxoquinazolin-3(4H)-yl)piperidine-2,6-dione]",DC50,[2],7610 nM
